Key:
Format in all cases: cell-based
human TLR7 = biological target: T1, human TLR7 (Homo sapiens, UniProt Q9NYK1); assay: TLR7 inhibition reporter assay (HEK-Blue SEAP); settings: HEK-Blue cells overexpressing human TLR7, stimulated with gardiquimod 7.5 μM, 22 hour incubation
T1 construct: host or cells: HEK-Blue cells
T1 sequence (Q9NYK1 27-1049): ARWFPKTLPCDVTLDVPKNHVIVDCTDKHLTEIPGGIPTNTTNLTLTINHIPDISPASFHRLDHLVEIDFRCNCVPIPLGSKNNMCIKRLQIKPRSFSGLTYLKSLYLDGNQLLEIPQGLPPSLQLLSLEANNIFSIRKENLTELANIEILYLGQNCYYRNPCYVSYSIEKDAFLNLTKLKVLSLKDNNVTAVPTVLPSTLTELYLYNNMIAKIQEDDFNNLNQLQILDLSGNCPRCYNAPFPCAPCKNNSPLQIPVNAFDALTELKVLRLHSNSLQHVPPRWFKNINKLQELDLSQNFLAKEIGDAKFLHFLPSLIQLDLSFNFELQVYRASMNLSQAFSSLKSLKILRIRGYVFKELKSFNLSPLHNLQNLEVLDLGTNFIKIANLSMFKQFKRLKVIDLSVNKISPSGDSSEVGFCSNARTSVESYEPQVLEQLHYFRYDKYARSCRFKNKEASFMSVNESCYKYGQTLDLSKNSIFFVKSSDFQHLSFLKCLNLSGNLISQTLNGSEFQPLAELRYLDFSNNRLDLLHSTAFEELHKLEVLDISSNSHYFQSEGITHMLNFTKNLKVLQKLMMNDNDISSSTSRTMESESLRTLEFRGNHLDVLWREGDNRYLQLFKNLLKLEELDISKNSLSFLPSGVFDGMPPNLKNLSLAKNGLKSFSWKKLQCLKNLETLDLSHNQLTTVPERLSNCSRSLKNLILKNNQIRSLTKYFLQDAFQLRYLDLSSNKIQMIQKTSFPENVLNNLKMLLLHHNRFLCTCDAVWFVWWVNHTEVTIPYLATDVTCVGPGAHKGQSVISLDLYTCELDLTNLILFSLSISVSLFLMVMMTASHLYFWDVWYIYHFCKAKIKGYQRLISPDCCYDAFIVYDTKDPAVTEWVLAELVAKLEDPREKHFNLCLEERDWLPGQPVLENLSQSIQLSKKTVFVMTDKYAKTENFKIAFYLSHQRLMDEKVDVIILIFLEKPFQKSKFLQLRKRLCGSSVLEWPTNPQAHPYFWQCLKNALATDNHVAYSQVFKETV
Procedure, shortened: (§1)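 HEK-Blue cells with NF-κB/AP-1-driven SEAP reporter; compounds 0.05 nM-50 μM, 30 min pre-treatment at room temperature, then agonist: gardiquimod 7.5 μM (TLR7), R848 15.9 μM (TLR8) or ODN2006 5 nM (TLR9). SEAP read after 22 h at 37 °C; percent inhibition versus agonist-plus-DMSO and reference-inhibitor wells.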

human TLR8 = biological target: T2, human TLR8 (Homo sapiens, UniProt Q9NR97); assay: TLR8 inhibition reporter assay (HEK-Blue SEAP); settings: HEK-Blue cells overexpressing human TLR8, stimulated with R848 15.9 μM, 22 hour incubation
T2 construct: host or cells: HEK-Blue cells
T2 sequence (Q9NR97 27-1041): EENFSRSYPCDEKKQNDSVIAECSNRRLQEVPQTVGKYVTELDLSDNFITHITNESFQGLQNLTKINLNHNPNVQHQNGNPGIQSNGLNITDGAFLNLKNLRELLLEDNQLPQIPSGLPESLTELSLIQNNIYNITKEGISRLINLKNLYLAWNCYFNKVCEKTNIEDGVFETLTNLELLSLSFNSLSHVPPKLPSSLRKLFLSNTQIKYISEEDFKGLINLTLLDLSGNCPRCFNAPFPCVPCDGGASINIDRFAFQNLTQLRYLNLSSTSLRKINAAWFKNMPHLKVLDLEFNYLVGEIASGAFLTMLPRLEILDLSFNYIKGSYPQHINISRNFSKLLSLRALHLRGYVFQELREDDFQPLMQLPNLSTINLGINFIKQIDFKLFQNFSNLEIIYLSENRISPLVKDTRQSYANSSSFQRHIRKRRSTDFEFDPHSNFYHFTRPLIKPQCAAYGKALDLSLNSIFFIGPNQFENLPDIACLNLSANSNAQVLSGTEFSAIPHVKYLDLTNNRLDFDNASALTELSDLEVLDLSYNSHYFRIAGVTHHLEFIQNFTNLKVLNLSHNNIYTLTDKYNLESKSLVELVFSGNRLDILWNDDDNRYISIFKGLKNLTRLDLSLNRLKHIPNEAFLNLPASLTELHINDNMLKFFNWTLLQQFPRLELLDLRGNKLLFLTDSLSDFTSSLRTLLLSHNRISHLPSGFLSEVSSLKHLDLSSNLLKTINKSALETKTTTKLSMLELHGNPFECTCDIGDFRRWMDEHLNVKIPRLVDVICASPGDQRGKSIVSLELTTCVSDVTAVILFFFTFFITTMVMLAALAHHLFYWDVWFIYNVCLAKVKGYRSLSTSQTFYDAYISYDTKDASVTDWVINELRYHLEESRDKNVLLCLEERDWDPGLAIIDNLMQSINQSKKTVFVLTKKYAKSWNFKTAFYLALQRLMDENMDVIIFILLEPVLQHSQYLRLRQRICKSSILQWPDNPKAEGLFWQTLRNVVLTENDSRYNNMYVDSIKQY
Procedure, shortened: as §1

human TLR9 = biological target: T3, human TLR9 (Homo sapiens, UniProt Q9NR96); assay: TLR9 inhibition reporter assay (HEK-Blue SEAP); settings: HEK-Blue cells overexpressing human TLR9, stimulated with ODN2006 5 nM, 22 hour incubation
T3 construct: host or cells: HEK-Blue cells
T3 sequence (Q9NR96 26-1032): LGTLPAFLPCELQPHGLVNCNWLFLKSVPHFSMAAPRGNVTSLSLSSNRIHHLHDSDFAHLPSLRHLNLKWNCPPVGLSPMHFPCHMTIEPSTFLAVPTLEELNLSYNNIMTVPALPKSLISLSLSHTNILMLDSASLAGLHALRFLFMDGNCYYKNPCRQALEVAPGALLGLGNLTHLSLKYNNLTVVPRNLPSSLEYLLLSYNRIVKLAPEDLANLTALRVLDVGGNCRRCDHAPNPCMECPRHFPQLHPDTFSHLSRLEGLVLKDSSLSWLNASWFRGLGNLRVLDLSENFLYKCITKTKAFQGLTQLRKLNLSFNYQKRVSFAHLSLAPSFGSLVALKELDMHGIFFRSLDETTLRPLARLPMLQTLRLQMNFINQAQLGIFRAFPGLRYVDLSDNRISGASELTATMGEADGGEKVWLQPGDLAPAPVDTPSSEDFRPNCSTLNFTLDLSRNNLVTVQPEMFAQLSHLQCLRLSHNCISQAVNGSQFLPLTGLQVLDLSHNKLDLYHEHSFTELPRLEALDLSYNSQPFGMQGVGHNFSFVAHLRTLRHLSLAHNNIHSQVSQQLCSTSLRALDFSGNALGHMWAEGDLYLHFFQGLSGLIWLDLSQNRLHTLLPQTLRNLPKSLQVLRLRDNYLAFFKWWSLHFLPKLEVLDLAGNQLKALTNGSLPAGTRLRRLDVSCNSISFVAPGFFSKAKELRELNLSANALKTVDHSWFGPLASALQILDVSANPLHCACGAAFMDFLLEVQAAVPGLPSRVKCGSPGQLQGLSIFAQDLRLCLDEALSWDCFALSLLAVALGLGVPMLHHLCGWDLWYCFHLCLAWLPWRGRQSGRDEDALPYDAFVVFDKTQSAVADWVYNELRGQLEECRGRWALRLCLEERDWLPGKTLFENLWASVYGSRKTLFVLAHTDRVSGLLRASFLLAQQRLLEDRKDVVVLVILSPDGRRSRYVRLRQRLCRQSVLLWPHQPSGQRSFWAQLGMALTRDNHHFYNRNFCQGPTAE
Procedure, shortened: as §1

In the case of `Cc1cc(-c2[nH]c3ccc(OCC4CCN(C5COC5)CC4)cc3c2C(C)C)cn2ncnc12` [Example 43, 6-(3-isopropyl-5-((1-(oxetan-3-yl)piperidin-4-yl)methoxy)-1H-indol-2-yl)-8-methyl-[1,2,4]triazolo[1,5-a]pyridine], the IC50 (human TLR7) is reported as 0.6 nM, the IC50 (human TLR8) is reported as 1.1 nM and the IC50 (human TLR9) is reported as > 50000 nM.
`Cc1cc(-c2[nH]c3ccc(OCC4CCN(C5CCOCC5)CC4)cc3c2C(C)C)cn2ncnc12` [Example 44, 6-(3-isopropyl-5-((1-(tetrahydro-2H-pyran-4-yl)piperidin-4-yl)methoxy)-1H-indol-2-yl)-8-methyl-[1,2,4]triazolo[1,5-a]pyridine] was tested, and the IC50 (human TLR7) was 0.6 nM, the IC50 (human TLR8) was 1.4 nM and the IC50 (human TLR9) was 1030 nM.
`Cc1c(-c2[nH]c3ccc(OC4CCN(C(C)C)CC4)cc3c2C(C)C)cn(C)c(=O)c1Cl` [Example 45] was tested, and the IC50 (human TLR7) was 9.6 nM, the IC50 (human TLR8) was 2.2 nM and the IC50 (human TLR9) was 2200 nM.
`Cc1c(-c2[nH]c3ccc(OC4CCN(C)CC4)cc3c2C(C)C)cn(C)c(=O)c1Cl` [Example 46, 3-chloro-5-(3-isopropyl-5-((1-methylpiperidin-4-yl)oxy)-1H-indol-2-yl)-1,4-dimethylpyridin-2(1H)-one] showed an IC50 (human TLR7) of 5.6 nM, an IC50 (human TLR8) of 3.4 nM and an IC50 (human TLR9) of 3750 nM.
With `Cc1cc(-c2[nH]c3ccc(OC4CCN(C(C)C)CC4)cc3c2C(C)C)cn2ncnc12` [Example 47, 6-(3-isopropyl-5-((1-isopropylpiperidin-4-yl)oxy)-1H-indol-2-yl)-8-methyl-[1,2,4]triazolo[1,5-a]pyridine] the IC50 (human TLR7) was 0.8 nM, the IC50 (human TLR8) was 1 nM and the IC50 (human TLR9) was 2480 nM.
`Cc1c(-c2[nH]c3ccc(OC4CCN(C(C)C)CC4)cc3c2C(C)C)cn(C)c(=O)c1C` [Example 48, 5-(3-isopropyl-5-((1-isopropylpiperidin-4-yl)oxy)-1H-indol-2-yl)-1,3,4-trimethylpyridin-2(1H)-one] was tested, and the IC50 (human TLR7) was 6.9 nM, the IC50 (human TLR8) was 1 nM and the IC50 (human TLR9) was 5040 nM.
Work on `Cc1c(-c2[nH]c3ccc(OCC4CCN(C(C)C)CC4)cc3c2C(C)C)cn(C)c(=O)c1C` [Example 49, 5-(3-isopropyl-5-((1-isopropylpiperidin-4-yl)methoxy)-1H-indol-2-yl)-1,3,4-trimethylpyridin-2(1H)-one] yielded an IC50 (human TLR7) of 9.2 nM, an IC50 (human TLR8) of 1.8 nM and an IC50 (human TLR9) of 4120 nM.
In the case of `Cc1c(-c2[nH]c3ccc(OC4CCN(C5COC5)CC4)cc3c2C(C)C)cn(C)c(=O)c1C` [Example 50, 5-(3-isopropyl-5-((1-(oxetan-3-yl)piperidin-4-yl)oxy)-1H-indol-2-yl)-1,3,4-trimethylpyridin-2(1H)-one], the IC50 (human TLR7) is reported as 123 nM, the IC50 (human TLR8) is reported as 21.3 nM and the IC50 (human TLR9) is reported as > 50000 nM.
In the case of `Cc1c(-c2[nH]c3ccc(OCC4CCN(C5COC5)CC4)cc3c2C(C)C)cn(C)c(=O)c1C` [Example 51, 5-(3-isopropyl-5-((1-(oxetan-3-yl)piperidin-4-yl)methoxy)-1H-indol-2-yl)-1,3,4-trimethylpyridin-2(1H)-one], the IC50 (human TLR7) is reported as 19.3 nM, the IC50 (human TLR8) is reported as 2.6 nM and the IC50 (human TLR9) is reported as > 50000 nM.
For `Cc1c(-c2[nH]c3ccc(OCC4CCN(C5COC5)CC4)cc3c2C(C)C)cn2cnnc2c1C` [Example 52, 6-(3-isopropyl-5-((1-(oxetan-3-yl)piperidin-4-yl)methoxy)-1H-indol-2-yl)-7,8-dimethyl-[1,2,4]triazolo[4,3-a]pyridine], the IC50 (human TLR7) was 6.1 nM, the IC50 (human TLR8) was 5.8 nM and the IC50 (human TLR9) was 7810 nM.
Work on `Cc1c(-c2[nH]c3ccc(OC4CCN(C)CC4)cc3c2C(C)C)cn2cnnc2c1C` [Example 53, 6-(3-isopropyl-5-((1-methylpiperidin-4-yl)oxy)-1H-indol-2-yl)-7,8-dimethyl-[1,2,4]triazolo[4,3-a]pyridine] yielded an IC50 (human TLR7) of 1.9 nM, an IC50 (human TLR8) of 3.3 nM and an IC50 (human TLR9) of 494 nM.
In the case of `Cc1c(-c2[nH]c3ccc(OCC4CCN(C)CC4)cc3c2C(C)C)cn2cnnc2c1C` [Example 54, 6-(3-isopropyl-5-((1-methylpiperidin-4-yl)methoxy)-1H-indol-2-yl)-7,8-dimethyl-[1,2,4]triazolo[4,3-a]pyridine], the IC50 (human TLR7) is reported as 1.5 nM, the IC50 (human TLR8) is reported as 3.1 nM and the IC50 (human TLR9) is reported as 1250 nM.
Molecule `Cc1c(-c2[nH]c3ccc(OCC4CCN(C(C)C)CC4)cc3c2C(C)C)cn2cnnc2c1C` [Example 55, 6-(3-isopropyl-5-((1-isopropylpiperidin-4-yl)methoxy)-1H-indol-2-yl)-7,8-dimethyl-[1,2,4]triazolo[4,3-a]pyridine] has an IC50 (human TLR7) of 2.6 nM, an IC50 (human TLR8) of 4.3 nM and an IC50 (human TLR9) of 1620 nM.
For `Cc1c(-c2[nH]c3ccc(OC4CCN(C5COC5)CC4)cc3c2C(C)C)cn2cnnc2c1C` [Example 56, 6-(3-isopropyl-5-((1-(oxetan-3-yl)piperidin-4-yl)oxy)-1H-indol-2-yl)-7,8-dimethyl-[1,2,4]triazolo[4,3-a]pyridine], the IC50 (human TLR7) was 26.3 nM, the IC50 (human TLR8) was 19.4 nM and the IC50 (human TLR9) was 19300 nM.
Molecule `Cc1c(-c2[nH]c3ccc(OC4CCN(C(C)C)CC4)cc3c2C(C)C)cn2cnnc2c1C` [Example 57, 6-(3-isopropyl-5-((1-isopropylpiperidin-4-yl)oxy)-1H-indol-2-yl)-7,8-dimethyl-[1,2,4]triazolo[4,3-a]pyridine] has an IC50 (human TLR7) of 33.6 nM, an IC50 (human TLR8) of 14.5 nM and an IC50 (human TLR9) of 18600 nM.

— patent US12030878B2 (BRISTOL-MYERS SQUIBB COMPANY, priority 2017, dated 2024)
